ChEMBL document CHEMBL2040722, “Synthesis and anti-breast cancer activity of new indolylquinone derivatives” (Eur J Med Chem, 2012)
In brackets after ≈: the same amount, converted by molar mass. Activity calls are given as the source filed them. The rule behind the calls is not given here.

How the values were obtained:
Type in all cases: functional, cell-based
MCF7 [1] = assay: Antiproliferative activity against human MCF7 cells after 48 hrs by CCK-8 assay; conditions: MCF7, 48 h
MDA-MB-231 [2] = assay: Antiproliferative activity against human MDA-MB-231 cells after 48 hrs by CCK-8 assay; conditions: MDA-MB-231, 48 h
MCF7 [3] = assay: Induction of apoptosis in human MCF7 cells assessed as late apoptosis at 0.3 ug/ml after 24 hrs by annexin V-FITC and PI-based fluorescence assay
MDA-MB-231 [4] = assay: Induction of apoptosis in human MDA-MB-231 cells after 24 hrs by annexin V-FITC and PI-based fluorescence assay
MCF7 [5] = assay: Induction of apoptosis in human MCF7 cells after 24 hrs by annexin V-FITC and PI-based fluorescence assay
MCF7 [6] = assay: Induction of apoptosis in human MCF7 cells assessed as early apoptosis at 0.3 ug/ml after 24 hrs by annexin V-FITC and PI-based fluorescence assay
MCF7 [7] = assay: Induction of apoptosis in human MCF7 cells assessed as late apoptosis at 0.9 ug/ml after 24 hrs by annexin V-FITC and PI-based fluorescence assay
MCF7 [8] = assay: Induction of apoptosis in human MCF7 cells assessed as early apoptosis at 0.9 ug/ml after 24 hrs by annexin V-FITC and PI-based fluorescence assay
MDA-MB-231 [9] = assay: Induction of apoptosis in human MDA-MB-231 cells at 1.25 ug/ml after 24 hrs by annexin V-FITC and PI-based fluorescence assay
MDA-MB-231 [10] = assay: Induction of apoptosis in human MDA-MB-231 cells at 0.4 ug/ml after 24 hrs by annexin V-FITC and PI-based fluorescence assay

IC50 (MCF7 [1]) [µg/mL]	IC50 (MDA-MB-231 [2]) [µg/mL]	Compound	other results
3.38 (≈ 5.48 µM)	7.67 (≈ 12.4 µM)	COc1ccc2[nH]c(C)c(C3=C(Br)C(=O)C(Br)=C(c4c(-c5ccccc5)[nH]c5ccccc45)C3=O)c2c1	–
3.25 (≈ 5.41 µM)	6.67 (≈ 11.1 µM)	Cc1ccc(-c2[nH]c3ccccc3c2C2=C(Br)C(=O)C(c3c(C)[nH]c4ccccc34)=C(Br)C2=O)cc1	–
2.29 (≈ 4.6 µM)	4.46 (≈ 8.97 µM)	Cc1[nH]c2ccccc2c1C1=C(Cl)C(=O)C(c2c(-c3ccccc3)[nH]c3ccccc23)=C(Cl)C1=O	Activity (MCF7 [3]): Active; Activity (MDA-MB-231 [4]): Dose-dependent effect; Activity (MCF7 [5]): Dose-dependent effect; Activity (MCF7 [6]): Active; Activity (MCF7 [7]): Active; Activity (MCF7 [8]): Active
4.72 (≈ 8.08 µM)	8.43 (≈ 14.4 µM)	COc1ccc2[nH]c(C)c(C3=C(Br)C(=O)C(Br)=C(c4c(C)[nH]c5ccc(OC)cc45)C3=O)c2c1	–
2.8 (≈ 5.48 µM)	4.21 (≈ 8.23 µM)	Cc1ccc(-c2[nH]c3ccccc3c2C2=C(Cl)C(=O)C(c3c(C)[nH]c4ccccc34)=C(Cl)C2=O)cc1	–
2.88 (≈ 5.63 µM)	5.77 (≈ 11.3 µM)	Cc1ccc(-c2[nH]c3ccccc3c2C2=C(Cl)C(=O)C(Cl)=C(c3c(C)[nH]c4ccccc34)C2=O)cc1	–
3.02 (≈ 5.15 µM)	4.33 (≈ 7.39 µM)	Cc1[nH]c2ccccc2c1C1=C(Br)C(=O)C(Br)=C(c2c(-c3ccccc3)[nH]c3ccccc23)C1=O	–
> 25	34.9 (≈ 86.8 µM)	O=C1C(Cl)=C(Cl)C(=O)C(c2c(-c3ccccc3)[nH]c3ccccc23)=C1Cl	–
> 25	> 10	COc1ccc2[nH]c(C)c(C3=C(Br)C(=O)C(c4c(C)[nH]c5ccccc45)=C(Br)C3=O)c2c1	–
3.02 (≈ 5.15 µM)	5.64 (≈ 9.62 µM)	Cc1[nH]c2ccccc2c1C1=C(Br)C(=O)C(c2c(-c3ccccc3)[nH]c3ccccc23)=C(Br)C1=O	–
3.11 (≈ 5.74 µM)	4.15 (≈ 7.66 µM)	COc1ccc2[nH]c(C)c(C3=C(Cl)C(=O)C(c4c(-c5ccc(C)cc5)[nH]c5ccccc45)=C(Cl)C3=O)c2c1	–
–	0.2 (≈ 0.368 µM)	COc1cccc2c1C(=O)c1c(O)c3c(c(O)c1C2=O)C[C@@](O)(C(=O)CO)C[C@@H]3O[C@H]1C[C@H](N)[C@H](O)[C@H](C)O1 [DOXORUBICIN]	–
2.56 (≈ 4.06 µM)	3.99 (≈ 6.33 µM)	COc1ccc2[nH]c(C)c(C3=C(Br)C(=O)C(c4c(-c5ccc(C)cc5)[nH]c5ccccc45)=C(Br)C3=O)c2c1	Activity (MDA-MB-231 [9]): Active; Activity (MDA-MB-231 [4]): Dose-dependent effect; Activity (MCF7 [5]): Dose-dependent effect; Activity (MDA-MB-231 [10]): Active
6.85 (≈ 11.4 µM)	5.89 (≈ 9.81 µM)	Cc1ccc(-c2[nH]c3ccccc3c2C2=C(Br)C(=O)C(Br)=C(c3c(C)[nH]c4ccccc34)C2=O)cc1	–
8.33 (≈ 15.9 µM)	4.76 (≈ 9.08 µM)	Cc1[nH]c2ccccc2c1C1=C(Br)C(=O)C(Br)=C(c2c(C)[nH]c3ccccc23)C1=O	–
7 (≈ 13.4 µM)	5.55 (≈ 10.6 µM)	Cc1[nH]c2ccccc2c1C1=C(Br)C(=O)C(c2c(C)[nH]c3ccccc23)=C(Br)C1=O	–
> 25	> 10	COc1ccc2[nH]c(C)c(C3=C(Br)C(=O)C(Br)=C(Br)C3=O)c2c1	–
2.57 (≈ 4.17 µM)	5.02 (≈ 8.15 µM)	COc1ccc2[nH]c(C)c(C3=C(Br)C(=O)C(c4c(-c5ccccc5)[nH]c5ccccc45)=C(Br)C3=O)c2c1	–
2.58 (≈ 5.19 µM)	5.27 (≈ 10.6 µM)	Cc1[nH]c2ccccc2c1C1=C(Cl)C(=O)C(Cl)=C(c2c(-c3ccccc3)[nH]c3ccccc23)C1=O	–
> 25	21.6 (≈ 39.2 µM)	Cc1ccc(-c2[nH]c3ccccc3c2C2=C(Br)C(=O)C(Br)=C(Br)C2=O)cc1	–
2.31 (≈ 4.27 µM)	6.04 (≈ 11.2 µM)	COc1ccc2[nH]c(C)c(C3=C(Cl)C(=O)C(Cl)=C(c4c(-c5ccc(C)cc5)[nH]c5ccccc45)C3=O)c2c1	–
